Source: PMC9780825, “Combining mKate2-Kv1.3 Channel and Atto488-Hongotoxin for the Studies of Peptide Pore Blockers on Living Eukaryotic Cells” (Toxins, 2022)

How the values were obtained:
Kv1.3 channel = details: whole-cell patch-clamp; mouse channels, L929 mouse fibroblast cells; read-out: Kd (published); cited from earlier work
From the text: Table 1 The Kap values for the complexes formed by K-ΔKv1.3 with the studied pore blockers and published data on the affinities of these blockers. | column: KTx1; ChTx; AgTx2; TEA

[1] = biological target: K-ΔKv1.3 (N-terminally truncated human Kv1.3 tagged with mKate2) (Homo sapiens, UniProt P22001); test: Fluorescent competitive binding assay (FCBA), displacement of A-HgTx from K-ΔKv1.3; parameters: expressed in transfected cells; host or cells: HEK293 (transient transfection with pmKate2-KCNA3-del)
Chain of K-ΔKv1.3 (N-terminally truncated human Kv1.3 tagged with mKate2) (P22001 53-575 limits assumed, stated change not applied): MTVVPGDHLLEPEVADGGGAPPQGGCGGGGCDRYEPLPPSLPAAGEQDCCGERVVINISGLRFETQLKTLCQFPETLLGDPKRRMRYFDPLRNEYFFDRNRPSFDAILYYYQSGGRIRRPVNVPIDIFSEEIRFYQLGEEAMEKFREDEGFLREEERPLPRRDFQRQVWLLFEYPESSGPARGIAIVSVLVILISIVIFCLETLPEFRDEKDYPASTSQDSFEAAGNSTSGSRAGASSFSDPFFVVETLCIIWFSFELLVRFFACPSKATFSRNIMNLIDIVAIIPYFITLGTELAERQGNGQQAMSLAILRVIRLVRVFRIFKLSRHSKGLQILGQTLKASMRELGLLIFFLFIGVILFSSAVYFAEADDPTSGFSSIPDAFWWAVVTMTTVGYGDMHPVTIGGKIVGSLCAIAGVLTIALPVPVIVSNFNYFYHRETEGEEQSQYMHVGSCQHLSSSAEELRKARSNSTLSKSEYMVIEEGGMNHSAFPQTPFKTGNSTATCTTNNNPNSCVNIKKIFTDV
From the text: To quantitatively characterize formation of complexes between A-HgTx and K-ΔKv1.3 on cell membranes, the confocal images of A-HgTx bound at the membrane of the K-ΔKv1.3 presenting cells were subjected to the treatment procedure as follows. Regions of interest (ROIs) corresponding to the plasma membranes stained with K-ΔKv1.3 were selected. Using a set of these ROIs and a threshold procedure (to null a background signal from pixels without K-ΔKv1.3 signal), the binary (0;1) mask that describes membranous localization of K-ΔKv1.3 was created. The images of K-ΔKv1.3 and A-HgTx distribution were multiplied by the corresponding mask. Next, average intensities of fluorescence of K-ΔKv1.3 (Ici) and A-HgTx (Ili) were calculated for each ROI (i.e., for each i-cell), and a ratio Ri was calculated as follows. Ri = (Ili − Ilb)/(Ici − Icb) (1) where Ilb and Icb are intensities of background signals in the fluorescent images of A-HgTx and Kv1.3 channels, respectively. Calculating Ri (i.e., normalizing A-HgTx intensity to that of K-ΔKv1.3), a correction was introduced for variations in a level of K-ΔKv1.3 expression on the membrane of particular cells. Ri values of 15–20 cells were averaged to obtain the Rav value, and a standard deviation was calculated.
Concentration of A-HgTx was 2 nM. Concentration of pore blockers C varied as indicated in the graph.
When Kd of A-HgTx and IC50 for the studied compound are known, the apparent dissociation constant Kap of complexes between the compound and channel can be calculated using the Cheng-Prusoff equation [50]:Kap = IC50/(1 + L/Kd)(4) where L is the concentration of A-HgTx in the competitive binding experiment.
In A-HgTx binding experiments, cells were incubated with A-HgTx (0.15–4 nM) for 30 min (37 °C, 5% CO2) in the complete medium. In competitive binding experiments, cells were incubated with A-HgTx (2 nM) and selected pore blocker at variable concentrations (0.5–100 nM for recombinant peptides and 1–20 mM for TEA) for 30 min (37 °C, 5% CO2) in the complete medium.
Experiments with HEK293 cells were performed with a laser scanning confocal microscope Leica-SP2 (Leica Microsystems GmbH, Wetzlar, Germany). The water-immersion 63×/1.2 NA HCX PL APO objective was used.
Fluorescence of mKate2-fused hKv1.3 was excited at the 561 nm wavelength and recorded in the 650–700 nm range. Fluorescence of A-HgTx was excited at the 488 nm wavelength and recorded in the 495–535 nm range. Distributions of A-HgTx and mKate2 fluorescence in cells were imaged using sequential scanning to avoid interference of intrinsic cellular fluorescence excited at the 488 nm with the mKate2 fluorescence.
Each experimental point in the curves describing interaction A-HgTx with mKate2-tagged Kv1.3 channels is an average over 15–25 treated images of cells. […]

CC[N+](CC)(CC)CC [TEA, tetraethylammonium]
Kd (Kv1.3 channel): 10 mM | Kd ([1]; Cheng-Prusoff from IC50, 2 nM A-HgTx, blockers 0.5–100 nM (peptides) or 1–20 mM (TEA), 30 min, 37 °C, 5% CO2, complete medium, HEK293 cells, mean ± SEM, three independent measurements, read-out: Kap, apparent dissociation constant of complexes formed by K-ΔKv1.3 with pore blocker): 2 mM | active concentration range (FCBA) ([1]; FCBA, HEK293 cells, result in words): active in the millimolar concentration range | displacement of A-HgTx from the complexes with K-ΔKv1.3 ([1]; living HEK293 cells, 2 nM A-HgTx, result in words): A-HgTx is also displaced
